{"source": "paper PMC6198970", "about": "“Safety, efficacy, and dose response of the maturation inhibitor GSK3532795 (formerly known as BMS-955176) plus tenofovir/emtricitabine once daily in treatment-naive HIV-1-infected adults: Week 24 primary analysis from a randomized Phase IIb trial” (PLoS ONE, 2018)", "key": {"[1]": {"parameters": "method as in protocol Section 1.4.1.2", "conditions": "80 mg/kg/day, ref protocol Section 1.4.1.2, cited from earlier work"}, "[2]": {"system": "human immunodeficiency virus type-2 (HIV-2) isolates", "parameters": "method as in protocol Section 1.4.1.2", "conditions": "active against 1 of 3 HIV-2 isolates; ref protocol Section 1.4.1.2; cited from earlier work"}, "[3]": {"assay": "Adverse events through Week 24", "type": "in vivo, HIV-1-infected adults", "experimental": "Physical examinations, measurement of vital signs, and clinical laboratory evaluations were performed at Weeks 4, 8, 12, 16 and 24, and participants were closely monitored for AEs and SAEs throughout. AEs were classified according to MedDRA version 19.0. The severity and relationship to study drug was assessed by the local investigator."}, "HIV-1 protease": {"system": "HIV-1 protease", "parameters": "method as in protocol Section 1.4.1.2", "conditions": "ref protocol Section 1.4.1.2; cited from earlier work"}, "[4]": {"parameters": "method as in AI468001 and AI468002", "conditions": "same doses and formulation; ref AI468001 and AI468002; listed as BMS-955176; cited from earlier work"}, "[5]": {"system": "HIV-1 with A364V or V362I plus secondary changes", "parameters": "method as in protocol Section 1.4.1.2", "conditions": "ref protocol Section 1.4.1.2, cited from earlier work"}, "[6]": {"conditions": "cited from earlier work"}, "CYP1A2, CYP2B6, CYP3A4": {"system": "CYP1A2, CYP2B6, CYP3A4", "parameters": "method as in protocol Section 1.4.1.2", "conditions": "ref protocol Section 1.4.1.2; cited from earlier work"}, "[7]": {"conditions": "cited from earlier work", "remark": "listed apart in the source"}, "[8]": {"parameters": "method as in Study AI468041", "conditions": "BMS-955176 80 mg SDD suspension with combined oral contraceptive; ref Study AI468041; cited from earlier work"}, "cytochrome P450 (CYP)3A4": {"system": "cytochrome P450 (CYP)3A4", "parameters": "method as in protocol Section 1.4.1.2", "conditions": "ref protocol Section 1.4.1.2; cited from earlier work"}, "[9]": {"assay": "Intensive PK, non-compartmental analysis and dose proportionality", "type": "in vivo, HIV-1-infected adults", "experimental": "Due to the EFV component of the blinded drug regimens, administration of study drug required both morning and evening dosing,12 hours apart. […] All bioanalytical analyses were conducted by PPD® Laboratories using validated high-performance liquid chromatography/mass spectroscopy assays. Intensive plasma GSK3532795 concentrations were analyzed by non-compartmental analysis using the actual sampling times in WinNonlin version 6.3.0 (Pharsight, St. Louis, Missouri, USA). […] To assess the dose proportionality of GSK3532795 when co-administered with TDF/FTC, a mixed-effect model with log-transformed dose as the fixed effect and each participant as the random effect was used to fit a power model in SAS version 9.1.3."}, "[10]": {"system": "23 isolates of subtype C viruses", "parameters": "method as in protocol Section 1.4.1.2", "conditions": "23 subtype C isolates; ref protocol Section 1.4.1.2; read-out: EC50, median; cited from earlier work"}, "[11]": {"parameters": "method as in Study AI468049", "conditions": "180 mg MC tablet, preliminary, ref Study AI468049, cited from earlier work"}, "[12]": {"parameters": "method as in protocol Section 1.4.1.2", "conditions": "100% human serum; ref protocol Section 1.4.1.2; listed as BMS-955176; cited from earlier work"}, "[13]": {"conditions": "cited from earlier work", "remark": "listed apart in the source"}, "CD4+ T-cell count": {"system": "CD4+ T-cell count", "assay": "Change from baseline in CD4+ T-cell count", "type": "in vivo, HIV-1-infected adults", "conditions": "Week 24", "source_text": "The primary endpoint was determination of the proportion of participants with plasma HIV-1 RNA <40 copies/mL at Week 24 after treatment with GSK3532795 or efavirenz (EFV). Secondary endpoints included mean changes from baseline in CD4+ T-cell count and mean changes in the percentage of CD4+ T-cell count over time. Secondary safety endpoints included frequency of adverse events (AEs), serious AEs (SAEs), and AEs leading to discontinuation through Week 24. Further secondary endpoints included emergence of drug resistance. Exploratory endpoints included assessment of the impact of Gag polymorphisms on the efficacy of GSK3532795. […] In addition, though Gag A364 is essentially invariant across genotypes, it was included in the primary endpoint analysis since emergent resistance to GSK3532795 (both in vitro and in Phase IIa studies) mapped, in part, to the A364V change. Thus, our analysis at the Week 24 primary endpoint was limited to these four positions. Pharmacokinetic (PK) analyses were performed to evaluate treatment exposure and assess the dose proportionality of GSK3532795 when co-administered with tenofovir disoproxil fumarate (TDF)/emtricitabine (FTC)."}, "HIV-1 clinical isolates": {"system": "HIV-1 clinical isolates", "conditions": "cited from earlier work"}, "OATP1B3": {"system": "OATP1B3", "parameters": "method as in protocol Section 1.4.1.2", "conditions": "ref protocol Section 1.4.1.2; cited from earlier work"}, "[14]": {"conditions": "GSK3532795: range across 60, 120, 180 mg arms, EFV 600 mg"}, "[15]": {"conditions": "GSK3532795 arms pooled, EFV 600 mg, abstract"}, "[16]": {"conditions": "30 mg/kg/day, ref protocol Section 1.4.1.2"}}, "note": "Where “and” joins values, the source holds several entries; their conditions need not be identical. Equal values may be shown once. Read-outs that look alike come from different tables or passages of the source.", "data": [{"smiles": "C=C(C)[C@@H]1CC[C@]2(NCCN3CCS(=O)(=O)CC3)CC[C@]3(C)[C@H](CC[C@@H]4[C@@]5(C)CC=C(c6ccc(C(=O)O)cc6)C(C)(C)[C@@H]5CC[C@]43C)[C@@H]12", "note": "[GSK3532795]", "values": [{"measurement": "AUC", "setting": "[1]", "result": 3.26, "unit": "gh/mL"}, {"measurement": "Developmental toxicity classification", "setting": "[1]; rabbits", "result": "not a developmental toxicant"}, {"measurement": "EC50", "setting": "[2]", "result": 15, "unit": "nM"}, {"measurement": "Mean time to onset of first diarrhea event", "setting": "[3]; 60 mg arm", "result": 48.4, "unit": "days"}, {"measurement": "Mean time to onset of first diarrhea event", "setting": "[3]; 120 mg arm", "result": 19.9, "unit": "days"}, {"measurement": "Mean duration of first diarrhea event", "setting": "[3]; 120 mg arm (longest)", "result": 104.2, "unit": "days"}, {"measurement": "Mean time to onset of first diarrhea event", "setting": "[3]; 180 mg arm", "result": 11.3, "unit": "days"}, {"measurement": "SAE considered related to study drug", "setting": "[3]; GSK3532795 120 mg (no action taken), EFV (led to discontinuation)", "result": "Grade 3 abdominal pain"}, {"measurement": "Grade 1–4-related abdominal pain", "setting": "[3]; [14]", "result": "6–16%"}, {"measurement": "Grade 1–4-related diarrhea", "setting": "[3]; [14]", "result": "27–51%"}, {"measurement": "Adverse events leading to discontinuation", "setting": "[3]; [15]", "result": 5, "unit": "%"}, {"measurement": "Serious adverse events", "setting": "[3]; [15]", "result": 5, "unit": "%"}, {"measurement": "Frequency of Grade 1–4-related AEs", "setting": "[3]; GSK3532795 arms pooled, EFV 600 mg, through Week 24", "result": 53, "unit": "%"}, {"measurement": "Direct inhibition of HIV-1 protease", "setting": "HIV-1 protease", "result": "does not directly inhibit HIV-1 protease"}, {"measurement": "Exposures lower in HIV-1-infected subjects compared to healthy subjects", "setting": "[4]", "result": 35, "unit": "%"}, {"measurement": "EC50", "setting": "[5]; V362I plus secondary change-containing viruses, read-out: EC50, median", "result": 25, "unit": "nM"}, {"measurement": "Loss of susceptibility", "setting": "[5]; virus with the A364V change", "result": "> 100", "unit": "fold"}, {"measurement": "AUC at NOAEL", "setting": "[6]; [16]", "result": 113.5, "unit": "g·h/mL"}, {"measurement": "ALT activity not recovered, fold", "setting": "[6]; 100 mg/kg/day, 1 male, end of 2-week recovery, ref protocol Section 1.4.1.2", "result": 1.94, "unit": "x"}, {"measurement": "AUC at dose with dose-limiting toxicity", "setting": "[6]; 100 mg/kg/day, ref protocol Section 1.4.1.2", "result": 357, "unit": "g·h/mL"}, {"measurement": "Finding at high dose", "setting": "[6]; 300 mg/kg/day, Days 8 to 9, ref protocol Section 1.4.1.2", "result": "early euthanasia of all the rats"}, {"measurement": "NOAEL", "setting": "[6]; rat, in vivo", "result": 30, "unit": "mg/kg/day"}, {"measurement": "Induction of CYP1A2, CYP2B6, or CYP3A4", "setting": "CYP1A2, CYP2B6, CYP3A4", "result": "not an inducer"}, {"measurement": "AUC at developmental NOAEL", "setting": "[7]; [16]", "result": 114, "unit": "gh/mL"}, {"measurement": "Developmental NOAEL", "setting": "[7]; rat, in vivo", "result": 30, "unit": "mg/kg/day"}, {"measurement": "Developmental toxicity classification", "setting": "[7]; rats, ref protocol Section 1.4.1.2", "result": "not a selective developmental toxicant"}, {"measurement": "Effect on exposures to ethinyl estradiol (EE) and norelgestromin (NGMN)", "setting": "[8]", "result": "reduced"}, {"measurement": "Metabolism in human in vitro systems", "setting": "cytochrome P450 (CYP)3A4", "result": "primarily mediated via cytochrome P450 (CYP)3A4"}, {"measurement": "Increase in systemic exposure with dose", "setting": "[9]; dose range 60–180 mg, with food and TDF/FTC", "result": "less than dose-proportional"}, {"measurement": "Time at which median steady-state plasma concentrations reached peak", "setting": "[9]; multiple doses 60, 120 or 180 mg with food and TDF/FTC", "result": "4–5 hours post-dose"}, {"measurement": "EC50", "setting": "[10]", "result": 5.6, "unit": "nM"}, {"measurement": "Increase in Cmax relative to fasted", "setting": "[11]; all three meal types", "result": "approximately 2 fold"}, {"measurement": "Increase in AUC relative to fasted", "setting": "[11]; high fat meal", "result": 2.5, "unit": "fold"}, {"measurement": "Increase in AUC relative to fasted", "setting": "[11]; standard meal", "result": 2.1, "unit": "fold"}, {"measurement": "Protein binding", "setting": "[12]", "result": "86% and 86.1%"}, {"measurement": "Safety in Phase 1", "setting": "[13]; SAD 10-120 mg, MAD 10-80 mg QD for 14-28 days, ref Study AI468001", "result": "No SAEs, deaths, or discontinuations related to study drug occurred"}, {"measurement": "Half life (T-HALF)", "setting": "[13]; healthy subjects, ref Study AI468001", "result": "approximately 35 hours"}, {"measurement": "Increase in BMS-955176 AUC(TAU)", "setting": "[13]; multiple dose with daily 400 mg ATV and a standard meal for 14 days, ref AI468001", "result": "~ 25%"}, {"measurement": "Time to steady state", "setting": "[13]; multiple-dose once daily, ref Study AI468001", "result": "approximately 7 days"}, {"measurement": "Increase in Cmax and AUC(INF) with dose", "setting": "[13]; single dose 10-120 mg, multiple dose 10-80 mg QD, ref Study AI468001", "result": "slightly less than dose-proportional"}, {"measurement": "Increase in BMS-955176 AUC(INF)", "setting": "[13]; single dose following two doses of 100 mg RTV, ref AI468001", "result": "~48", "unit": "%"}, {"measurement": "Mean change in CD4+ T-cell count (SD)", "setting": "CD4+ T-cell count; 60 mg", "result": "94.3 (SD 175.00) cells/μL"}, {"measurement": "Mean change in CD4+ T-cell count (SD)", "setting": "CD4+ T-cell count; 120 mg", "result": "79.7 (SD 199.46) cells/μL"}, {"measurement": "Mean change in CD4+ T-cell count (SD)", "setting": "CD4+ T-cell count; 180 mg", "result": "92.5 (SD 144.04) cells/μL"}, {"measurement": "EC50", "setting": "HIV-1 clinical isolates; PBMCs, CRF01_AE subtype, N = 7, ref protocol Section 1.4.1.2", "result": 77, "unit": "nM"}, {"measurement": "Fold less susceptible, CRF01_AE (clade AE) compared to clade B", "setting": "HIV-1 clinical isolates; in vitro, ref protocol Section 1.4.1", "result": "2-3 fold"}, {"measurement": "IC50", "setting": "OATP1B3", "result": 4, "unit": "µM"}]}]}
